In US8268818B2, “Inhibitors of C-MET and uses thereof” (Vertex Pharmaceuticals Incorporated, priority 2006, dated 2012):

Legend:
PI3Kγ [1] = target: T1, PI3Kγ (Homo sapiens, UniProt P48736); test: PI3K inhibition assay, Protocol A (33P incorporation, hydrophobic membrane filter plate); type: biochemical; details: 40 μM ATP, 65 μM PI(4,5)P2 diC8, 75 nM PI3Kγ, average if more than one result, read-out: PI3Kγ enzyme inhibition Ki
Protocol: Compounds were screened for their ability to inhibit PI3Kγ using one of the assays below. To each well of a 96 well polystyrene plate [Corning, Costar Item No. 3696], was added 1.5 μl of a compound of the invention (at various concentrations) along with 28.5 W of kinase buffer [50 mM HEPES (pH 7.4), 5 mM DTT, 5 mM MgCl2 and 50 mM NaCl] containing 137 μM phosphatidylinositol(4,5) bisphosphate diC8 [PI(4,5)P2; Echelon Biosciences, Cat. No. P-4508] and 158 nM PI3Ky. After mixing, 30 μl of kinase buffer containing 80 μM ATP was added to start the reaction. Final substrate concentrations in the assay were 50 mM HEPES (pH 7.4), 5 mM DTT, 5 mM MgCl2, 50 mM NaCl, 40 μM ATP (200 μCi/μmole ATP), 65 μM PI(4,5)P2 and 75 nM PI3Kγ. After 20 minutes at room temperature (25° C.), the reaction was stopped with 30 μl of kinase buffer containing 150 mM EDTA and 1.5 M ammonium sulfate. Each well of a 96 well hydrophobic membrane filter plate [Millipore, 0.45 μm hydrophobic membrane, Cat. No. […]] was washed with 100 μL wash buffer [50 mM HEPES (pH 7.4), 5 mM DTT, 5 mM MgCl2, 50 mM NaCl, 5 mM EDTA and 0.5 M ammonium sulfate]. 60 μL of the stopped assay was transferred to each well of the filter plate and soaked for 30 minutes. […] The filter plate was allowed to stand overnight prior to determining ^33P incorporation on a Perkin-Elmer Microbeta TriluxTM liquid scintillation counter and luminescence counter. […]

PI3Kγ [2] = target: T1, PI3Kγ; test: PI3K inhibition assay, Protocol B (33P-ATP, glass fiber filter plate); type: biochemical; details: Protocol B; 100 μM ATP, 46 μM PI(4,5)P2 diC16, 16.6 nM PI3Kγ; average if more than one result; read-out: PI3Kγ enzyme inhibition Ki
Protocol: Compounds were screened for their ability to inhibit PI3Kγ using one of the assays below.
To each well of a 96 well polystyrene plate [Corning Costar Item No. 3795], 61 μL of Reaction Mix [55 mM HEPES pH 7.5, 11 mM MgCl2, 27 mM NaCl, 5.5 mM DTT, 0.11 mg/mL BSA, 51 μM phosphatidylinositol(4,5)bisphosphate diC16 (PI(4,5)P2; Avanti Polar Lipids, Cat. No. 840046P) and 18 nM PI3Kγ] was added. Separately, ten 2.5-fold serial dilutions of compounds of the invention were prepared in 100% DMSO with the last two wells reserved for no inhibitor controls (enzyme+no compound and no enzyme control+no compound). 1 μL it of compound or DMSO alone was added by 12-channel hand pipet and incubated for 10 minutes at room temperature (25° C.). To initiate the reaction, 5 μl of ATP Mix [49 mM HEPES pH 7.5 and 1340 ^33P-ATP was added and allowed to incubate for 30 min. at 25° C. Final concentrations of the reaction were 50 mM HEPES 7.5, 10 mM MgCl2, 25 mM NaCl, 5 mM DTT, 0.1 mg/mL BSA, 46 μM PI(4,5)P2, 16.6 nM PI3Kγ, and 100 μM ATP. Final inhibitor concentrations ranged from 10 μM to 1 nM.
After incubation, 60 μL of the reaction was quenched by transferring to 504 of 20% TCA/Water in each well of a 96 well glass fiber filter plate [Millipore Cat. No. MAFBN0B50]. The plate was dried by vacuum and then washed five times in a Bio-Tek Instruments ELX-405 Auto Plate Washer with 150 μL of 5% TCA/Water. 50 μL of scintillation fluid was added to each well and the plate was read immediately on a Perkin-Elmer TopCount™ NXT liquid scintillation counter.
Inhibition data was background subtracted (no enzyme control+no inhibitor control) and fit to the competitive tight binding Ki equation described by Morrison and Stone. [J. F. Morrison and S. R. Stone, Comments Mol. Cell. Biophys. 2 (1985) 347-368].

T1 sequence (P48736 whole entry, species assumed): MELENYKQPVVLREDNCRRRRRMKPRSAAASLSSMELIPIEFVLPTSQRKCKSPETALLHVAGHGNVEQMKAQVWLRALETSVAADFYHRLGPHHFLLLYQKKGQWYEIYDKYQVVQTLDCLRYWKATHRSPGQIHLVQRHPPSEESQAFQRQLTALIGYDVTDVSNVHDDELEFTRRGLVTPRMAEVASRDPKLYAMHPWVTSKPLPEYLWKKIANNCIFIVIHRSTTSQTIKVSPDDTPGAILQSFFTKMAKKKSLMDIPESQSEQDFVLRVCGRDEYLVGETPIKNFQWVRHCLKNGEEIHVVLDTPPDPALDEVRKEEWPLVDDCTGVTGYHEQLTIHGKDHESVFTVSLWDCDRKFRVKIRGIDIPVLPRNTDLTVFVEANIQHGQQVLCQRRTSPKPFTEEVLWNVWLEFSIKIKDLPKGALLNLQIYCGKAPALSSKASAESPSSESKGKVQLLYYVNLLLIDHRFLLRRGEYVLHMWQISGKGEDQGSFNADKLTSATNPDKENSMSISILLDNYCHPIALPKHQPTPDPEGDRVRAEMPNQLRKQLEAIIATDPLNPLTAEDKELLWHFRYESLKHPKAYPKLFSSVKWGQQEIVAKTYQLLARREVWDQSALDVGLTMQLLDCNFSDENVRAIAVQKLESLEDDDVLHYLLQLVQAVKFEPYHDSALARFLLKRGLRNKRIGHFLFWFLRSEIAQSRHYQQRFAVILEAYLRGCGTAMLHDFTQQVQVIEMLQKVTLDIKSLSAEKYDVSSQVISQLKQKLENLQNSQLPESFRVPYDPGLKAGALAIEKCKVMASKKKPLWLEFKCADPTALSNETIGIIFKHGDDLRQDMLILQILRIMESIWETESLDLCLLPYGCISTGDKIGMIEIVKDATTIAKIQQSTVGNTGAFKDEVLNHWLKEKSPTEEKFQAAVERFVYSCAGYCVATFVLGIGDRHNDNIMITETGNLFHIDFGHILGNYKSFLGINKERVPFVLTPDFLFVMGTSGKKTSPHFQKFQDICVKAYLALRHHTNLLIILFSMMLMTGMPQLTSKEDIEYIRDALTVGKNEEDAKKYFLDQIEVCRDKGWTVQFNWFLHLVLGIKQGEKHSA

Row | Compound | Ki (PI3Kγ [1]) [nM] | Ki (PI3Kγ [2]) [nM]
1 | CCOC(=O)c1ccc(-c2sc(NC(=O)C3CC3)nc2C)o1 [Compound 1, Ethyl 5-(2-(cyclopropanecarboxamido)-4-methylthiazol-5-yl)furan-2-carboxylate] | 1000 to 5000 | 
2 | CC(=O)Nc1nc(C)c(-c2ccc(C(=O)NC3(CO)CCCC3)o2)s1 [Compound 12] |  | 100 to 1000
3 | CC(=O)Nc1nc(C)c(-c2ccc(C(=O)N3CCCCC3)o2)s1 [Compound 11] |  | 100 to 1000
